{"source": "ChEMBL document CHEMBL2040776", "about": "“Docking, synthesis and pharmacological activity of novel urea-derivatives designed as p38 MAPK inhibitors” (Eur J Med Chem, 2012)", "key": {"Rattus norvegicus [1]": {"tested_on": "Rattus norvegicus", "assay": "Antihypernociceptive activity in Wistar rat assessed as inhibition of capsaicin-induced thermal hypernociception by measuring paw withdrawal latency at 100 umol/kg, po administered 1 hr before capsaicin challenge measured after 10 mins", "assay_type": "functional, organism-based"}, "[2]": {"assay": "Antiinflammatory activity in BALB/c mouse peritoneal macrophages assessed as inhibition of LPS-induced TNFalpha production treated 1 hr before LPS challenge measured after 24 hrs by ELISA", "assay_type": "functional, cell-based", "details": "Peritoneal macrophage cell"}, "Rattus norvegicus [3]": {"tested_on": "Rattus norvegicus", "assay": "Antiinflammatory activity in Wistar rat assessed as inhibition of carrageenan-induced paw oedema at 100 umol/kg, po after 1 hr", "assay_type": "functional, organism-based"}, "[4]": {"assay": "Antiinflammatory activity in BALB/c mouse peritoneal macrophages assessed as inhibition of LPS-induced TNFalpha production at 100 uM treated 1 hr before LPS challenge measured after 24 hrs by ELISA", "assay_type": "functional", "details": "Peritoneal macrophage cell"}, "[5]": {"assay": "Cytotoxicity against BALB/c mouse peritoneal macrophages after 20 hrs by MTT assay", "assay_type": "cell-based", "details": "Peritoneal macrophage cell"}, "Rattus norvegicus [6]": {"tested_on": "Rattus norvegicus", "assay": "Antiinflammatory activity in Wistar rat assessed as inhibition of carrageenan-induced paw oedema at 100 umol/kg, po after 3 hrs", "assay_type": "functional, organism-based"}, "Mus musculus": {"tested_on": "Mus musculus", "assay": "Antihypernociceptive activity in po dosed BALB/c mouse methylated bovine serum albumin-induced arthritis model assessed as paw withdrawal latency administered 30 mins before mBSA challenge followed by second dose after 7 hrs by electronic Von Frey method", "assay_type": "functional, organism-based"}, "MAP kinase p38": {"target": "MAP kinase p38 (Mus musculus, UniProt P47811+O08911+Q9WUI1+Q9Z1B7)", "assay": "Inhibition of LPS-induced p38 MAPK activation in BALB/c mouse peritoneal macrophages"}}, "note": "pIC50: −log10 of the molar value. Activity calls are given as the source filed them. The calls are words filed in the database; no cut-off is given here.", "data": [{"smiles": "CCOC(=O)c1cc2cc3c(cc2nc1NC(=O)Nc1ccc([N+](=O)[O-])cc1)OCO3", "values": [{"measurement": "inhibition", "setting": "Rattus norvegicus [1]", "result": "Active"}]}, {"smiles": "CCOC(=O)c1cc2cc3c(cc2nc1NC(=O)Nc1ccc(Br)cc1)OCO3", "values": [{"measurement": "inhibition", "setting": "Rattus norvegicus [1]", "result": "Active"}]}, {"smiles": "CCOC(=O)c1cc2cc3c(cc2nc1NC(=O)NC1CCCCC1)OCO3", "values": [{"measurement": "pIC50", "setting": "[2]", "result": 4.26}, {"measurement": "inhibition", "setting": "Rattus norvegicus [3]", "result": "Active"}, {"measurement": "inhibition at 100 µM", "setting": "[4]", "result": 50, "unit": "%"}, {"measurement": "pIC50", "setting": "[5]", "result": 4.33}, {"measurement": "inhibition", "setting": "Rattus norvegicus [1]", "result": "Active"}, {"measurement": "inhibition", "setting": "Rattus norvegicus [6]", "result": "Active"}, {"measurement": "Activity", "setting": "Mus musculus", "result": "Dose-dependent effect"}, {"measurement": "IC50", "setting": "MAP kinase p38", "result": 14, "unit": "µM"}]}, {"smiles": "C[S+]([O-])c1ccc(-c2nc(-c3ccc(F)cc3)c(-c3ccncc3)[nH]2)cc1", "note": "(stereo not drawn) [SB-203580]", "values": [{"measurement": "pIC50", "setting": "[2]", "result": 6.66}, {"measurement": "inhibition", "setting": "Rattus norvegicus [1]", "result": "Active"}]}, {"smiles": "CCOC(=O)c1cc2cc3c(cc2nc1NC(=O)Nc1ccccc1)OCO3", "values": [{"measurement": "pIC50", "setting": "[5]", "result": 4.37}]}]}
